# Several values for one entry are separate records, joined by “and”; a condition that tells them apart may be missing. Identical values can stand only once.
# Experiment: Solubility assessment as a function of HPβCD concentration
# Assay type: physicochemical
# Procedure: Solubility studies were performed by the addition of a known mass of 5(6)-methoxy-2[[(methoxy-3,5-dimethyl-2-pyridinyl)-methyl]sulfinyl]-1H-benzimidazole and/or HP CD to a given volume of solvent system. Solubilities were determined by observation, as the maximum concentration at which 5(6)-methoxy-2-[[(4-methoxy-3,5-dimethyl-2-pyridinyl)-methyl]sulfinyl]-1H-benzimidazole completely dissolved. Additionally, concentrations of 5(6)-methoxy-2-[[(4-methoxy-3,5-dimethyl-2-pyridinyl)methyl]sulfinyl]-1H-benzimidazole and HP CD at set molar ratios were solubilized in systems of high pH (adjusted as high as 12.2, with 1N NaOH), the pH was adjusted (using 2N HCl) in a stepwise downward manner until precipitation occurred.
# The solubility of 5(6)-methoxy-2-[[(4-methoxy-3,5-dimethyl-2-pyridinyl)-methyl]sulfinyl]-1H-benzimidazole was assessed as a function of HPβCD concentration in water. […] In general, the solubility of the active ingredient is influenced by solution pH.
# The procedure according to Example 86 was repeated except that water with a borate buffer (pH of 8) was employed.
# The procedure according to Example 86 was repeated except that water with a phosphate buffer (pH of 11) was employed.
structure (smiles),measurement,setting,value
"COc1ccc2[nH]c([S+]([O-])Cc3ncc(C)c(OC)c3C)nc2c1 (stereo not shown) [5(6)-methoxy-2-[[(4-methoxy-3,5-dimethyl-2-pyridinyl)-methyl]sulfinyl]-1H-benzimidazole]",aqueous solubility,water,approximately 0.3 mg/mL and ~0.9 mM
same,solubility as a function of HPβCD concentration,water,increase linearly
same,solubility as a function of HPβCD concentration,water with a borate buffer (pH of 8),increase linearly
same,solubility as a function of HPβCD concentration,water with a phosphate buffer (pH of 11),increase linearly
